Experiment [1] concerns Radical scavenging activity.
Description: Antioxidant activity assessed as DPPH radical scavenging activity after 2 hrs by absorbance analysis
Experiment [2] deals with Acetylcholinesterase (Electrophorus electricus, UniProt O42275).
Description: Inhibition of electric eel AChE using acetylthiocholine iodide as substrate preincubated with enzyme for 10 mins prior to substrate challenge measured after 15 mins by Ellman's method
The next experiment deals with Cholinesterase (Equus caballus, UniProt P81908).
For experiment [3], the target named is Acetylcholinesterase (Homo sapiens, UniProt P22303). Kind of experiment: Inhibition of AChE in human erythrocytes using acetylthiocholine iodide as substrate preincubated with enzyme for 10 mins prior to substrate challenge measured after 15 mins by Ellman's method. In kind it is cell-based.
Sequence of Acetylcholinesterase (Homo sapiens, UniProt P22303) (P22303 whole entry): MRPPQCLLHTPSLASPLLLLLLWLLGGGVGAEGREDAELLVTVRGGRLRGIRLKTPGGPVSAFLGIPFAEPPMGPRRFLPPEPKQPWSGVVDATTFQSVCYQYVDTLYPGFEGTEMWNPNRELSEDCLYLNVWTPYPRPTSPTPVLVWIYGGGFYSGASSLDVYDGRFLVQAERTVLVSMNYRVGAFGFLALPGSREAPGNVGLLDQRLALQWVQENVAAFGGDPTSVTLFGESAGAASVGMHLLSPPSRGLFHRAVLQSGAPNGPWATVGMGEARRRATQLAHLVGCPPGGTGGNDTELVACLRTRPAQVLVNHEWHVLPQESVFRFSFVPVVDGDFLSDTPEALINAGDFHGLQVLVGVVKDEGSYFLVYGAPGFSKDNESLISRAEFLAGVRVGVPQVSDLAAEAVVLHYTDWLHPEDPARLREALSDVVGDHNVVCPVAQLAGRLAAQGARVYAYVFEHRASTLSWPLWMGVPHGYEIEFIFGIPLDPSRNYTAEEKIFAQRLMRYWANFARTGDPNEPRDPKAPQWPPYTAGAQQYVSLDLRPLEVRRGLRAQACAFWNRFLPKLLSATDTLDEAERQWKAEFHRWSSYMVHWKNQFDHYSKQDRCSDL
Experiment [4] is described as follows: Antioxidant activity assessed as superoxide anion radical scavenging activity at 100 uM by non-enzymatic phenazine methosulfate NADH-system. In kind it is functional.

pEC50, pIC50: −log10 of the molar value. A value given as a limit tells only on which side of the number the result lay.

Drawing on ChEMBL document CHEMBL3232950, “Quinolone-benzylpiperidine derivatives as novel acetylcholinesterase inhibitor and antioxidant hybrids for Alzheimer disease” (Bioorg Med Chem, 2014), this text covers EC50, IC50 and Activity for 20 molecules.

Sequence of Acetylcholinesterase (Electrophorus electricus, UniProt O42275) (O42275 whole entry): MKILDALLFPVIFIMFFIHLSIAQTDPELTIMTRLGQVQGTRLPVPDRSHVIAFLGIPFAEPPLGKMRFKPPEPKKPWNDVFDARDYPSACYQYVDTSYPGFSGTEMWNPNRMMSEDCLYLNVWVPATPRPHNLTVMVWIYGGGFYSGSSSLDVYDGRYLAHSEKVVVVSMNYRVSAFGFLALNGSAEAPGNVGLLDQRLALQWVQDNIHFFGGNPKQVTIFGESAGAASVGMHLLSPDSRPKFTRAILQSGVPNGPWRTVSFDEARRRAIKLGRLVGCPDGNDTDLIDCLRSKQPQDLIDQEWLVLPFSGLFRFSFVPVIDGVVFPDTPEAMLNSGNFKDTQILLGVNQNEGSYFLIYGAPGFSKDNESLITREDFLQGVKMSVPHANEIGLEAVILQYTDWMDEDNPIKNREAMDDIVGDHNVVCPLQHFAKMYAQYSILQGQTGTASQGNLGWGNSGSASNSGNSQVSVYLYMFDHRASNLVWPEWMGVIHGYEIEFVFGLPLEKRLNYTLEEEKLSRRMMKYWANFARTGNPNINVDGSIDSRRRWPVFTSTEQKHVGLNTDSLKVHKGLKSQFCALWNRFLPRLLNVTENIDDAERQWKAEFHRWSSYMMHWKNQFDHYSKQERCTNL
Sequence of Cholinesterase (P81908 whole entry): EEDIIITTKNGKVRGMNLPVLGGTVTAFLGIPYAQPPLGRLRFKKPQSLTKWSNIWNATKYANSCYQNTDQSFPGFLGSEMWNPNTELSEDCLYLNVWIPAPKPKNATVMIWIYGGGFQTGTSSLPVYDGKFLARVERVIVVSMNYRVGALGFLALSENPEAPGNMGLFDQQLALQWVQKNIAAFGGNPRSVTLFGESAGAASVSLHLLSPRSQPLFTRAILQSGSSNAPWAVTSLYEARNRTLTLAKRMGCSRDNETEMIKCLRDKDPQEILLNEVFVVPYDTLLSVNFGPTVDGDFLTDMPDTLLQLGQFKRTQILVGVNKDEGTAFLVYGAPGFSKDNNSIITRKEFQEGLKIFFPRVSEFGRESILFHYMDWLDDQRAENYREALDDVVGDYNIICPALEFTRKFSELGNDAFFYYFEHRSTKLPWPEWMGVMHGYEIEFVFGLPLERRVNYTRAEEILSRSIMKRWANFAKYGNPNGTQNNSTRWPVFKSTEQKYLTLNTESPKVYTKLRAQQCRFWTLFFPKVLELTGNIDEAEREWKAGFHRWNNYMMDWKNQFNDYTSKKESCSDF

Take `COc1cc(/C=C/C(=O)CC(=O)/C=C/c2ccc(O)c(OC)c2)ccc1O` [CURCUMIN]: the pEC50 in experiment [1] is 4.58.
On to `Cn1c(=O)c(C(=O)NCC2CCN(Cc3ccccc3)CC2)c(N)c2ccccc21`, for which the pIC50 at Acetylcholinesterase [2] is 6.42; against Cholinesterase, 5.94.
On to `O=C(NCC1CCN(Cc2ccccc2)CC1)c1c(O)c2ccccc2[nH]c1=O`, for which the pIC50 was 5.85 against Acetylcholinesterase [2] and 5.22 against Cholinesterase.
`Cn1c(=O)c(C(=O)NCC2CCN(Cc3ccccc3)CC2)c(O)c2ccccc21`: the pIC50 against Acetylcholinesterase [2] was 6.43; against Cholinesterase, 5.37.
In the case of `O=C(NC1CCN(Cc2ccccc2)CC1)c1c(O)c2ccccc2[nH]c1=O`, the pIC50 against Acetylcholinesterase [2] was 5.64; against Cholinesterase it was less than 5.00.
The corresponding values for `O=C(NCC1CCN(Cc2ccccc2)CC1)c1c(O)c2ccccc2n(Cc2ccccc2)c1=O` are 6.31 and less than 5.00.
On to `O=C(NCC1CCN(Cc2ccccc2)CC1)c1c(O)c2ccccc2n(Cc2cc(O)c(O)c(O)c2)c1=O`, for which the pIC50 on Acetylcholinesterase [2] was 5.41; at Cholinesterase it was less than 5.00. The molecule also had a pEC50 in experiment [1] of 3.97.
Consider `O=C(NCC1CCN(Cc2ccccc2)CC1)c1c(O)c2cc(O)c(O)cc2[nH]c1=O`, for which the pIC50 against Acetylcholinesterase [3] was 6.01; against Acetylcholinesterase [2], 6.32; on Cholinesterase, less than 5.00. In experiment [1], the pEC50 was 4.91.
For `COc1cc2c(O)c(C(=O)NCC3CCN(Cc4ccccc4)CC3)c(=O)n(C)c2cc1OC`, the pIC50 against Acetylcholinesterase [2] is 5.53; on Cholinesterase it was less than 5.00.
Consider `O=C(NC1CCN(Cc2ccccc2)CC1)c1c(-c2ccccc2)c2ccccc2[nH]c1=O`, for which the pIC50 against Acetylcholinesterase [2] and at Cholinesterase was less than 5.00 in each case.
Consider `Cn1c(=O)c(C(=O)NCC2CCN(Cc3ccccc3)CC2)c(O)c2cc(O)c(O)cc21`, for which the Activity in experiment [4] amounted to 40%. Also, the pIC50 on Acetylcholinesterase [2] was 5.69; at Cholinesterase, less than 5.00. Also, the pEC50 in experiment [1] was 4.66.
On to `Cc1c(C(=O)NCC2CCN(Cc3ccccc3)CC2)c(=O)[nH]c2ccccc12`, for which the pIC50 against Acetylcholinesterase [2] was 6.33; on Cholinesterase, less than 5.00.
For `COc1cc2c(O)c(C(=O)NCC3CCN(Cc4ccccc4)CC3)c(=O)n(Cc3ccccc3)c2cc1OC`, the values for the pIC50 against Acetylcholinesterase [2] and at Cholinesterase were 6.57 and less than 4.22, respectively.
Turning to `O=C(NCC1CCN(Cc2ccccc2)CC1)c1c(O)c2cc(O)c(O)cc2n(Cc2ccccc2)c1=O`, the pIC50 at Acetylcholinesterase [2] and against Cholinesterase was less than 5.00 in each case. The molecule also had a pEC50 in experiment [1] of 4.68.
Take `Cc1c(C(=O)NC2CCN(Cc3ccccc3)CC2)c(=O)[nH]c2ccccc12`: the pIC50 against Acetylcholinesterase [2] was 5.61; on Cholinesterase, less than 5.00.
Consider `COc1cc(Cn2c(=O)c(C(=O)NCC3CCN(Cc4ccccc4)CC3)c(O)c3ccccc32)cc(OC)c1O`, for which the Activity in experiment [4] came out at 33%. In addition, the figures for the pIC50 on Acetylcholinesterase [2] and against Cholinesterase were 6.25 and 6.48, respectively. This molecule had a pEC50 in experiment [1] of 4.04.
`Cn1c(=O)c(C(=O)NC2CCN(Cc3ccccc3)CC2)c(O)c2ccccc21`: the figures for the negative logarithm of the IC50 (pIC50) at Acetylcholinesterase [2] and against Cholinesterase were 5.82 and less than 5.00, respectively.
In the same order, the values of `O=C(NC1CCN(Cc2ccccc2)CC1)c1c(O)c2ccccc2n(Cc2ccccc2)c1=O` are 6.41 and less than 5.00.
Regarding `O=c1c(O)c(-c2ccc(O)c(O)c2)oc2cc(O)cc(O)c12` [QUERCETIN], the pEC50 in experiment [1] is 4.99.
Take `COc1cc2[nH]c(=O)c(C(=O)NCC3CCN(Cc4ccccc4)CC3)c(O)c2cc1OC`: the pIC50 against Acetylcholinesterase [3] was 6.64; at Acetylcholinesterase [2], 6.96; against Cholinesterase, less than 4.22.
